The values below are quoted from earlier work in US5728685A, “Methods of treating inflammation using cell adhesion inhibitors” (Glycomed Incorporated, priority 1995, dated 1998).

The series concerns mammalian hepatocytes. As to conditions: Lee et al. 1984, read-out: IC50 for inhibition of labeled ASOR binding; cited from earlier work.

Consider `OC[C@H]1O[C@@H](O[C@H]2[C@H](O)[C@@H](O)C(O)O[C@@H]2CO)[C@H](O)[C@@H](O)[C@H]1O` (stereo partly shown) [single valent lactose, lactose], for which the IC50 (as a rule, the concentration that inhibits the measured activity by half) is 500 µM.
